Data taken from patent US12649730B2 (MITOIMMUNE THERAPEUTICS INC., priority 2021, dated 2026).
Like-named read-outs stand apart in the source and are kept apart here.

Legend:
[1] = Solubility screening of the compound of Chemical Formula 1 in various solvents (supernatant, HPLC); assay type: physicochemical
[2] = Solubility equilibrium in DMSO/EtOH mixed solvent by temperature; assay type: physicochemical; conditions: organic solvent or mixture, thermodynamic from solid
Procedure: These were respectively heated and held at 50° C., 60° C., and 75° C. while being agitated for 6 hours. […] Accordingly, it was decided that a super-saturation method would be considered.

H9C2 cells [3] = assay: Cytoplasmic calcium concentration under tBHP treatment (FLIPR Calcium 6 assay kit); assay type: cell-based; conditions: 150 μM tBHP
Procedure: To examine the calcium concentration maintenance effect in cardiomyocytes, H9C2 cells were placed in a 96 well plate at 1.5×10^4 cells/well and cultured for 24 hours. To measure cytoplasmic calcium concentration, a FLIPR Calcium 6 assay kit (Molecular devices; #R8190) was used. Following the manufacturer's experimental method, the cells were treated with probenecid and calcium-specific dye. […] For stimulation of cells, the cells were treated with tBHP to a final concentration of 150 μM, then cytoplasmic calcium concentration was measured every 30 seconds in real time. […] The ΔF/F (Max-Min) value of the vertical axis is the difference between the maximum and minimum values for the fluorescence value of calcium-specific dye after tBHP treatment. The ΔF/F value increases with cytoplasmic calcium concentration. The horizontal axis indicates the concentration of Chemical Formula 1, and V.C. is a control only treated with the vehicle, where cytoplasmic calcium concentration increases most when treated with tBHP.

H9C2 cells [4] = assay: Mitochondrial calcium imaging with Rhod-2 under tBHP, thapsigargin and CaCl2; assay type: cell-based; conditions: 10 μM compound, 150 μM tBHP, 1.2 μM thapsigargin, 2 mM CaCl2
Procedure: In addition, in order to confirm the effect of inhibiting the increase in mitochondrial calcium concentration in cardiomyocytes by cell imaging, H9C2 cells were seeded in a 35 mm culture dish at 1.5×10^4 cells and cultured for 24 hours. Imaging of calcium concentration in mitochondria was performed using Rhod-2. The cells were treated with Rhod-2, MitoTracker Green (200 nM), and Hoechst33342 (2 drops/ml) for 50 minutes, washed twice with KRB buffer, and incubated for another 30 minutes with buffer solution. The cells were treated with the compound of Formula 1 for 0.25 hours to final concentration of 10 μM, and treated with tBHP for 30 minutes to final concentration of 150 μM. Then, the cells were treated with 1.2 μM thapsigargin for 10 minutes and 2 mM of CaCl2, and the fluorescence developed in mitochondrial calcium of the living cells was observed through imaging.

H9C2 cells [5] = assay: Intra-mitochondrial reactive oxygen species, DHR-123 fluorometry under tBHP; assay type: cell-based; conditions: 0.0001 to 30 μM compound, 400 μM tBHP
Procedure: To examine the intra-mitochondrial reactive oxygen species removal effect in cardiomyocytes, H9C2 cells were placed in a 96 well plate at 1.5×10^4 cells/well and cultured for 24 hours. To measure mitochondria-specific reactive oxygen species, fluorometry using dihydrorhodamine-123 (DHR-123) was used.

H9C2 cells [6] = assay: Intra-mitochondrial superoxide imaging with MitoSOX under tBHP; assay type: cell-based; conditions: 1 μM compound, 50 μM tBHP 1 hour
Procedure: To measure the superoxides among the reactive oxygen species occurring in mitochondria, intracellular fluorescent imaging was used by using MitoSOX™ (Red Mitochondrial Superoxide Indicator). […] The cell culture medium was replaced with a medium without phenol red, then the cells were treated for 30 minutes with HOECHST (0.5 drop/ml), MitoTracker Green (150 nM) and MitoSOX (2 μM) before observing intracellular fluorescence through imaging.

RAW264.7 cells = assay: Peroxynitrite removal in macrophages under SIN-1 (DAX-J2 PON Green); assay type: cell-based; conditions: RAW264.7 macrophages, 10 μM and 30 μM, 200 μM SIN-1
Procedure: (§1) To confirm the effect of removing peroxynitrite produced from macrophages, RAW264.7 cells were seeded in a 96 well plate at 1×10^5 cells/well and cultured for 24 hours. Peroxynitrite was measured by fluorescence measurement using DAX-J2™ PON Green dye. […] Thereafter, SIN-1 was treated to a final concentration of 200 μM, and the amount of peroxynitrite generated in the cell every 2 minutes in real time was measured through fluorescence intensity. To confirm the effect of removing peroxynitrite from astrocytes, C8-D1A cells were seeded in a 96 well plate at 6×10^4 cells/well and cultured for 24 hours, and the experiment was performed under the same conditions. […] The horizontal axis represents the concentrations of the compound of Formula 1 and ascorbic acid, and V.C is the control treated with only the vehicle, and the concentration of intracellular peroxynitrite increases the most during SIN-1 treatment. The vertical axis represents the total amount of peroxynitrite generated 1 hour after SIN-1 treatment.

C8-D1A cells = assay: Peroxynitrite removal in astrocytes under SIN-1 (DAX-J2 PON Green); assay type: cell-based; conditions: 10 μM and 30 μM, 200 μM SIN-1
Procedure: as §1

[7] = tested on: MPTP-induced Parkinson's disease mouse model; assay: Pole test in MPTP-induced Parkinson's disease mouse model; assay type: in vivo, C57BL/6 mice; conditions: intraperitoneally once a day, low, medium and high doses, 6 days from 2 days after MPTP
[8] = tested on: MPTP-induced Parkinson's disease mouse model; assay: Grip strength test in MPTP-induced Parkinson's disease mouse model; assay type: in vivo, C57BL/6 mice; conditions: intraperitoneally once a day, low, medium and high doses, 6 days from 2 days after MPTP
[9] = tested on: MPTP-induced Parkinson's disease mouse model; assay: TH (Tyrosine hydroxylase) staining of brain tissue in MPTP-induced Parkinson's disease mouse model; assay type: in vivo, C57BL/6 mice; conditions: medium and high doses
Procedure: Behavioral disorders were induced by administering 20 mg/kg MPTP to C57BL/6 mice a total of 4 times at 2 hour intervals. […] On the 6th day after administration of the compound of Formula 1, mice were sacrificed, frozen sections of brain tissue were prepared, and TH (Tyrosine hydroxylase) staining was performed.

[10] = intraperitoneally once a day, low, 6 days

SMILES: O=S1(=O)CCN(Cc2cc(NC3CCOCC3)c3[nH]c(-c4ccccc4)cc3c2)CC1 [compound of Chemical Formula 1, 5-[(1,1-dioxido-4-thiomorpholinyl)methyl]-2-phenyl-N-(tetrahydro-2H-pyran-4-yl)-1H-indol-7-amine]
- Solubility ([1]; Heptane, 25° C.): <LOQ
- Solubility ([1]; Heptane, 50° C.): <LOQ
- Solubility ([1]; MTBE, 25° C.): 0.06 mg/mL
- Solubility ([1]; MTBE, 50° C.): 0.07 mg/mL
- Solubility ([1]; THF, 25° C.): 17.40 mg/mL
- Solubility ([1]; in most solvents (Table 3)): very low
- Solubility ([1]; organic solvent or mixture, thermodynamic from solid, in DMF, NMP and DMSO (Table 3), read-out: Solubility): ≥ 40 mg/mL
- solubility at 6 h ([2]; DMSO/EtOH 1:4 mixed solvent, DMSO/EtOH 1:4, 50° C.): 15 mg/mL
- solubility at 6 h ([2]; DMSO/EtOH 1:4 mixed solvent, DMSO/EtOH 1:4, 60° C.): 19 mg/mL
- solubility at 6 h ([2]; DMSO/EtOH 1:4 mixed solvent, DMSO/EtOH 1:4, 75° C.): 31 mg/mL
- solubility at 6 h ([2]; DMSO/EtOH 1:5 mixed solvent, DMSO/EtOH 1:5, 50° C.): 12 mg/mL
- solubility at 6 h ([2]; DMSO/EtOH 1:5 mixed solvent, DMSO/EtOH 1:5, 60° C.): 14 mg/mL
- solubility at 6 h ([2]; DMSO/EtOH 1:5 mixed solvent, DMSO/EtOH 1:5, 75° C.): 19 mg/mL
- Cytoplasmic calcium concentration (ΔF/F Max-Min) after tBHP (H9C2 cells [3]; 0.01 μM compound): reduced
- Cytoplasmic calcium concentration (ΔF/F Max-Min) after tBHP (H9C2 cells [3]; 0.1 μM compound): normal level of cytoplasmic calcium concentration
- Mitochondrial calcium concentration (Rhod-2 fluorescence) (H9C2 cells [4]): effectively inhibited the increase in the calcium concentration in mitochondria
- Total intra-mitochondrial reactive oxygen species over 2 hours after tBHP (DHR-123) (H9C2 cells [5]): inhibit occurrence of reactive oxygen species in a concentration-dependent manner
- Intra-mitochondrial superoxide (MitoSOX fluorescence) (H9C2 cells [6]): effectively removes intra-mitochondrial reactive oxygen species including superoxides
- Peroxynitrite inhibition compared with positive control ascorbic acid (RAW264.7 cells): superior inhibitory effect than ascorbic acid
- Total peroxynitrite generated 1 hour after SIN-1 treatment (RAW264.7 cells): peroxynitrite generation was inhibited by treatment with the compound of Formula 1 in a concentration-dependent manner
- Peroxynitrite inhibition compared with positive control ascorbic acid (C8-D1A cells): superior inhibitory effect than ascorbic acid
- Total peroxynitrite generated 1 hour after SIN-1 treatment (C8-D1A cells): peroxynitrite generation was inhibited by treatment with the compound of Formula 1 in a concentration-dependent manner
- Pole test T-turn time [7]: recovered in a concentration-dependent manner
- Pole test total time [7]: recovered in a concentration-dependent manner
- Grip force value [8]: restored in a concentration-dependent manner
- TH level in the striatum [9, 10]: recovered in a concentration-dependent manner
- TH level in the substantia nigra [9, 10]: recovered in a concentration-dependent manner
- TH level in the striatum [9]: significantly increased
